Key:
[1] = molecular target: RNA molecules; conditions: specific RNA molecules; cited from earlier work
[2] = test system: anti-dig; assay: Detection of hapten on TANTAGEL beads with anti-dig and AP-coupled secondary antibody; type: binding, mouse; conditions: 100% coupling on the beads
Procedure: Ninety (90) micrometer TANTAGEL-amine beads were mixed with dig-NHS ester at different concentrations to covalently label the beads with dig. Dig-NHS was added in amounts sufficient to label 100%, 10%, 1%, 0.1%, 0.01% and 0.001% of the amino groups. The remaining amino groups were capped with acetic anhydride, and the beads were washed.
Dig-labeled beads were incubated with anti-dig (1 microgram/ml) in the presence of BSA and buffer. The beads were washed, incubated with alkaline phosphatase (AP)-coupled goat anti-mouse antibody, and washed again. Then a chromogenic precipitating substrate (commercially available) for detecting AP was added. Blue color on the beads indicates the presence of AP, and thus effective detection of the dig hapten by antibody.

| Compound | Kd [1] [nM] | Staining of beads [2] |
| --- | --- | --- |
| N=C(N)NCCC[C@@H](N)C(=O)O [D-arginine] | 1700 | – |
| c1cc2ccc3cccc4ccc(c1)c2c34 [pyrene] | – | no staining |

— patent US6541203B2, “Detecting structural or synthetic information about chemical compounds” (President and Fellows of Harvard College, priority 1998, dated 2003)
